For orientation: Km means the concentration of substrate that gives half-maximal velocity.

One assay deals with 1321N1 cells. Briefly: Impedance-based phenotypic assay on 1321N1 cells. The conditions noted are these: 1 mM. The class given is cell-based, human. As for the experimental part: Label-free whole-cell assays, based on cell-induced changes in impedance, were performed using the xCELLigence real-time cell analyzer (RTCA) system (ACEA Biosciences, San Diego, CA, United States) as described previously ([Vlachodimou et al., 2019]; [Sijben et al., 2021a], [2021b]). In short, cells are cultured in medium on gold-plated electrodes in microwell E-plates. Per well impedance is continuously measured at 10 kHz and is converted to the unitless parameter Cell Index (CI) by the following formula: CI=(Zi−Z0)Ω/15Ω where Zi is the impedance at any given time point and Z0 is the baseline impedance measured at the start of each experiment ([Kho et al., 2015]).
Assays were performed at 37°C and 5% CO2 in 96-well PET E-plates in a total volume of 100 µl per well. Prior to cell seeding, the baseline impedance (Z0) was measured in the recording station in 40 µl (two compound additions) or 45 µl (one compound addition) medium in the presence (+) or absence (−) of 1 μg/ml dox. […]
Experimental data was recorded using RTCA Software v2.0 or v2.1.1 (ACEA Biosciences). […] The potency values of substrates and inhibitory potencies of EAAT inhibitors were determined by fitting the net AUC data to a sigmoidal concentration-effect curve with a variable slope.

For the next assay, the system named is EAAT1-3. The conditions noted are these: read-out: Steady-state affinities (Km), ref Arriza et al., 1994, Tzingounis and Wadiche, 2007; cited from earlier work.

Counter-ions that a name gives are not always drawn.

In the case of `N[C@@H](CCC(=O)O)C(=O)O` [L-glutamate, L-glutamic acid monosodium salt monohydrate], the “Cellular response within 180 min” value with 1321N1 cells is listed as “did not show a substantial cellular response”. Besides, the Km in the assay on EAAT1-3 was about 20 µM.

(Values after publication PMC9169222, “Impedance-Based Phenotypic Readout of Transporter Function: A Case for Glutamate Transporters” (Frontiers in Pharmacology, 2022).)
